Experiment [1] addresses T1, avidin (Gallus gallus, UniProt P02701).
T1 construct: gene AVD; homotetramer by known biology (monomers A and C mentioned)
The experiment is described as follows: isothermal titration calorimetry; co-crystal structure […] Å. It counts as binding.

In experiment [2] the target is T1, avidin. The experiment is described as follows: isothermal titration calorimetry; HABA assay. Type of experiment: binding.

T1 sequence (P02701 25-152): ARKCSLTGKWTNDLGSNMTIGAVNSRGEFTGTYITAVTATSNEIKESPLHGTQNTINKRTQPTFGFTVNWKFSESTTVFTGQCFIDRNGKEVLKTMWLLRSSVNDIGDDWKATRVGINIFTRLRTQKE

Regarding `O=C(CCCC[C@@H]1SC[C@@H]2NC(=O)N[C@@H]21)NCCc1cc([N+](=O)[O-])ccc1O` [compound 7], the affinity on avidin [1], expressed as Kd, was 225 nM.

The compound `CC(C)Cn1cnc2c(NC(=O)OCCOC(=O)Oc3ccc([N+](=O)[O-])cc3CCNC(=O)CCCC[C@@H]3SC[C@@H]4NC(=O)N[C@@H]43)nc3ccccc3c21` [compound 8, LDNPC (8)] showed a Kd on avidin [2] of 104 nM.

These data come from paper PMC7702144, “A Ligand-Directed Nitrophenol Carbonate for Transient in situ Bioconjugation and Drug Delivery” (ChemMedChem, 2020).
